Laboratory results from the supplement of paper PMC10307832.

Legend:
Assay in all cases: relative viability (nuclei count vs DMSO), 5 days (fraction); higher = more cells survive
Dabrafenib + Tozasertib = compound: CC(C)(C)c1nc(-c2cccc(NS(=O)(=O)c3c(F)cccc3F)c2F)c(-c2ccnc(N)n2)s1 [Dabrafenib] + Cc1cc(Nc2cc(N3CCN(C)CC3)nc(Sc3ccc(NC(=O)C4CC4)cc3)n2)n[nH]1 [Tozasertib] (partner 0.1 µM)
Method in brief: (§1)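 Relative viability is defined as nuclei in treated wells over nuclei in vehicle wells. Duplicate plates were run and medians reported. Lung cancer cell lines in 1536-well plates were dosed by pin tool one day after seeding, with one drug or with a fixed anchor-drug dose plus five library-drug doses (not always all listed) in √10 steps, and nuclei were counted after 5 days.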

VX-702 + Navitoclax = compound: NC(=O)c1ccc(N(C(N)=O)c2c(F)cccc2F)nc1-c1ccc(F)cc1F [VX-702] + CC1(C)CCC(c2ccc(Cl)cc2)=C(CN2CCN(c3ccc(C(=O)NS(=O)(=O)c4ccc(N[C@H](CCN5CCOCC5)CSc5ccccc5)c(S(=O)(=O)C(F)(F)F)c4)cc3)CC2)C1 [Navitoclax] (partner 0.5 µM)
Method in brief: as §1

VX-702 + Crizotinib = compound: NC(=O)c1ccc(N(C(N)=O)c2c(F)cccc2F)nc1-c1ccc(F)cc1F [VX-702] + C[C@@H](Oc1cc(-c2cnn(C3CCNCC3)c2)cnc1N)c1c(Cl)ccc(F)c1Cl [Crizotinib] (partner 1 µM)
Method in brief: as §1

VX-702 + Pemetrexed = compound: NC(=O)c1ccc(N(C(N)=O)c2c(F)cccc2F)nc1-c1ccc(F)cc1F [VX-702] + Nc1nc2[nH]cc(CCc3ccc(C(=O)N[C@@H](CCC(=O)O)C(=O)O)cc3)c2c(=O)[nH]1 [Pemetrexed] (partner 0.2 µM)
Method in brief: as §1

Row | Cell Line | relative viability (Dabrafenib + Tozasertib; first compound 0.003 µM) | relative viability (Dabrafenib + Tozasertib; first compound 0.009487 µM) | relative viability (Dabrafenib + Tozasertib; first compound 0.03 µM) | relative viability (Dabrafenib + Tozasertib; first compound 0.09487 µM) | relative viability (Dabrafenib + Tozasertib; first compound 0.3 µM) | relative viability (VX-702 + Navitoclax; first compound 0.02 µM) | relative viability (VX-702 + Navitoclax; first compound 0.2 µM) | relative viability (VX-702 + Navitoclax; first compound 0.6325 µM) | relative viability (VX-702 + Navitoclax; first compound 2 µM) | relative viability (VX-702 + Crizotinib; first compound 0.02 µM) | relative viability (VX-702 + Crizotinib; first compound 0.2 µM) | relative viability (VX-702 + Crizotinib; first compound 0.6325 µM) | relative viability (VX-702 + Crizotinib; first compound 2 µM) | relative viability (VX-702 + Pemetrexed; first compound 0.02 µM) | relative viability (VX-702 + Pemetrexed; first compound 0.2 µM) | relative viability (VX-702 + Pemetrexed; first compound 0.6325 µM) | relative viability (VX-702 + Pemetrexed; first compound 2 µM)
1 | 201T | 1.02 | 0.915 | 0.918 | 0.912 | 1.04 | 1.17 | 1.22 | 1.23 | 1.24 | 1.01 | 1.02 | 1.08 | 1.04 | 0.36 | 0.331 | 0.339 | 0.34
2 | A549 |  |  |  |  |  | 1.25 | 1.23 | 1.28 | 1.42 | 0.754 | 0.812 | 0.739 | 1.08 |  |  |  | 
3 | A-427 |  | 0.202 | 0.187 | 0.196 | 0.209 | 0.877 | 0.919 | 0.905 | 0.962 | 0.824 | 0.81 | 0.808 | 1.01 | 1.06 | 0.993 | 0.986 | 1.06
4 | ABC-1 | 0.215 | 0.244 | 0.206 | 0.132 | 0.174 |  |  |  |  | 1.34 |  | 1.08 | 1.42 |  |  |  | 
5 | BEN |  | 0.563 |  | 0.412 | 0.501 | 0.0513 | 0.104 | 0.0606 | 0.0662 | 0.732 | 0.781 | 0.937 | 0.956 | 0.825 | 0.689 | 0.623 | 0.86
6 | CAL-12T | 0.377 | 0.424 | 0.423 | 0.328 | 0.349 | 1.22 | 1.18 | 1.3 | 1.35 | 0.636 | 0.564 | 0.756 | 0.651 | 0.982 | 1.22 | 1.14 | 1.29
7 | COR-L23 | 0.174 | 0.221 | 0.201 | 0.205 | 0.19 | 0.968 | 0.979 | 1.18 | 1.27 | 0.768 | 0.666 | 0.668 | 0.757 | 0.203 | 0.183 | 0.21 | 0.23
8 | COR-L 105 | 0.332 | 0.415 | 0.362 | 0.347 | 0.395 | 0.82 | 0.61 | 0.851 | 1.08 | 0.653 | 0.79 | 0.956 | 1.21 | 1.06 | 1 | 1.14 | 1.25
9 | Calu-6 |  |  |  |  |  | 0.927 | 0.811 | 1.01 | 1.01 | 0.847 | 0.86 | 0.764 | 0.996 |  |  |  | 
10 | ChaGo-K-1 | 0.219 | 0.223 | 0.225 | 0.194 | 0.239 | 0.991 | 0.403 | 0.898 | 1.4 | 1.09 | 1.1 | 1.21 | 1.23 | 0.249 | 0.257 | 0.269 | 0.26
11 | EBC-1 |  |  |  |  |  | 0.441 | 0.413 | 0.337 | 0.389 | 0.191 | 0.18 | 0.158 | 0.201 |  |  |  | 
12 | EKVX | 0.475 | 0.406 | 0.407 | 0.337 | 0.457 | 0.96 | 0.932 | 0.882 | 0.986 | 0.774 | 0.969 | 0.905 | 1.2 | 0.463 | 0.345 | 0.38 | 0.431
